{"source": "patent EP4691487A1", "about": "“METHOD FOR INCREASING CONCENTRATION OF MACROMOLECULAR DRUG IN TUMOR TISSUE” (priority 2023, dated 2024)", "key": {"PC-07-006 model": {"system": "PC-07-006 model", "test": "Anti-human IgG secondary antibody staining of TRODELVY bound to tumor cells in vivo (Example 5)", "parameters": "species or system BALB/c nude mice", "details": "tissue samples from Example 4", "from_the_text": "The experimental method was the same as in Example 3. The experimental tissue samples were from Example 4. The anti-human IgG secondary antibody was able to recognize the binding of TRODELVY to tumor cells in vivo. […] Example 6: In vivo pharmacological study of the tumor infiltration level of test article, fluorescein Cy5.5-labeled Hanquyou( ? ) antibody (H-Cy5.5), in a subcutaneous xenograft tumor model of human gastric cancer NCI-N87 cells in Balb/c-nude mice after administration of IN10018"}, "[1]": {"system": "human pancreatic cancer PC-07-0067 model", "test": "Anti-tumor efficacy in pancreatic cancer PC-07-0067 subcutaneous xenograft (PDX) model (Example 4)", "format": "in vivo, BALB/c nude mice", "details": "TRODELVY 3 mg/kg IV BIW", "from_the_text": "Establishment of PDX model: The human pancreatic cancer PC-07-0067 model was initially established from a surgically resected clinical sample, which was designated as P0 after being inoculated into nude mice. Inoculation of tumor tissue from P0 into the next generation of mice is referred to as P1, and so on for subsequent serial passages in nude mice. FP3 tumors were resuscitated from P2 generation tissue, and the next generation from FP3 was designated as FP4, and so on.\nTumor Inoculation: A 20-30 mm^3 PC-07-0067 FP5 tumor tissue piece was subcutaneously inoculated on the right flank of each mouse for tumor growth. The mice were randomized for dosing when the mean tumor volume reached approximately 100-150 mm^3.\nExperimental indicator: The experimental indicator is to examine whether tumor growth is inhibited, delayed or cured. Tumor diameter is measured with a vernier caliper twice a week. The formula for calculating tumor volume is: V = 0.5a × b^2, a and b represent the long diameter and short diameter of the tumor, respectively.\nThe anti-tumor efficacy of a compound is evaluated using the TGI(%) or tumor proliferation rate (T/C)(%). TGI(%) reflects the rate of tumor growth inhibition.\nTumor proliferation rate T/C (%): The calculation formula is as follows: T/C(%) = Ti/Vi × 100 %, wherein Vi is the mean tumor volume of the solvent control group at a certain measurement, and Ti is the mean tumor volume of the dosing group at the same measurement."}}}
{"sequence": "TRODELVY", "values": [{"measurement": "antibody-tumor cell binding", "setting": "PC-07-006 model", "value": "significant antibody-tumor cell binding"}, {"measurement": "T/C", "setting": "[1]; after 14 days of dosing, T/C = Ti/Vi, IN10018 12.5 mg/kg PO QD", "value": 27.95, "unit": "%"}, {"measurement": "TGI", "setting": "[1]; after 14 days of dosing, IN10018 12.5 mg/kg PO QD", "value": 78.91, "unit": "%"}, {"measurement": "mean tumor volumes", "setting": "[1]; day 14, IN10018 12.5 mg/kg PO QD (tartrate salt weighed)", "value": 423, "unit": "mm^3"}]}
